Reference: patent US20210238192A1, “VASCULAR ADHESION PROTEIN-1 (VAP-1) MODULATORS AND THERAPEUTIC USES THEREOF” (Blade Therapeutics, Inc., priority 2018, published 2021)
Where a name gives a salt, the structure may show the parent alone. Read-outs that look alike come from different tables or passages of the source.

How the values were obtained:
Assay type in all cases: biochemical
Human VAP-1 = target: T1, Human VAP-1 (Homo sapiens, UniProt Q16853); assay: VAP-1 inhibition assay (Amplex Red continuous fluorescence assay)
T1 sequence (Q16853 1-763): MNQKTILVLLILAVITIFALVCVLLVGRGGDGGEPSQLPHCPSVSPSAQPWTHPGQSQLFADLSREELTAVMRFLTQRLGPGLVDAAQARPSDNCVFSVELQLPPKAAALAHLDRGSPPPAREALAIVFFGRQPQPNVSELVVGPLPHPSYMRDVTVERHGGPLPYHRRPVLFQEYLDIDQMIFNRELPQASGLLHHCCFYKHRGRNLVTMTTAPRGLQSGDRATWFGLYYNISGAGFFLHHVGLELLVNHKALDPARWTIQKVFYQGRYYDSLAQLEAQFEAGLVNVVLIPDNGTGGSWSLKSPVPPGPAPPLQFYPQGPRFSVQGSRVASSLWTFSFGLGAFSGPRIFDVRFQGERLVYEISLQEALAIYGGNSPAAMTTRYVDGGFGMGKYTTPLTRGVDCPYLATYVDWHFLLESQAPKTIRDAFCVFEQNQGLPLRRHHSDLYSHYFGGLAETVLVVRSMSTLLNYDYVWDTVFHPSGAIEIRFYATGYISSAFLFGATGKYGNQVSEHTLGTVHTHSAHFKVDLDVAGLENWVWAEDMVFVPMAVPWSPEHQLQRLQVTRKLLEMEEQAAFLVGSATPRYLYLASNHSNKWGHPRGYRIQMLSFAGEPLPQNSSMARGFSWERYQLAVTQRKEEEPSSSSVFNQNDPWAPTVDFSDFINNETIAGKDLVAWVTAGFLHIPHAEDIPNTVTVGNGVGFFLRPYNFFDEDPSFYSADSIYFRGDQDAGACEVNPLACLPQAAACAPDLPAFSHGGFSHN
Experimental: (§1) VAP-1, DAO, MAO-A, MAO-B, and HRP activity and inhibition thereof was assessed by means of a continuous fluorescence assay. The Amplex Red Hydrogen Peroxide/Peroxidase Assay (ThermoFisher) was optimized for detecting amine oxidase (AO) activity. In an enzyme-coupled reaction, the H2O2 generated by AO reacts 1:1 with Amplex Red reagent to produce fluorescent product resorufin.
(§2) Assays were typically setup in black 384-well plates using automated liquid handling as follows. VAP-1/MAO assay buffer contains […] sodium phosphate, pH 7.4; DAO assay buffer contains 50 mM HEPES, pH 7.5; HRP assay buffer contains 100 mM CHES, 1 mM MgCl2, 50 mM NaCl, 0.05% BSA, pH 9.0. Inhibitors were serially diluted in DMSO and used to setup 2× mixtures with AO in the aforementioned buffer. After 30 min pre-incubation at 37° C. (VAP-1, HRP) or room temp (DAO, MAO), the reaction was initiated by adding a 2× mix of Amplex Red, HRP (coupling enzyme), and substrate (benzylamine, histamine, tyramine, benzylamine, H2O2, for VAP-1, DAO, MAO-A, MAO-B, and HR, respectively) in the same buffer. Reaction progress curve data were typically collected for 5 min using excitation/emission wavelengths of 510 nm/565 nm on FLIPR-Tetra plate readers (Molecular Devices Inc). Reaction rates were calculated from progress curve slopes typically over 60-150 sec. Dose response curves (rate vs. log inhibitor concentration) were typically fit to a 4-parameter logistic function to extract IC50 values.

Human MAO-A = target: T2, Human MAO-A (Homo sapiens, UniProt P21397); assay: MAO-A inhibition (Amplex Red continuous fluorescence assay)
T2 sequence (P21397 1-527): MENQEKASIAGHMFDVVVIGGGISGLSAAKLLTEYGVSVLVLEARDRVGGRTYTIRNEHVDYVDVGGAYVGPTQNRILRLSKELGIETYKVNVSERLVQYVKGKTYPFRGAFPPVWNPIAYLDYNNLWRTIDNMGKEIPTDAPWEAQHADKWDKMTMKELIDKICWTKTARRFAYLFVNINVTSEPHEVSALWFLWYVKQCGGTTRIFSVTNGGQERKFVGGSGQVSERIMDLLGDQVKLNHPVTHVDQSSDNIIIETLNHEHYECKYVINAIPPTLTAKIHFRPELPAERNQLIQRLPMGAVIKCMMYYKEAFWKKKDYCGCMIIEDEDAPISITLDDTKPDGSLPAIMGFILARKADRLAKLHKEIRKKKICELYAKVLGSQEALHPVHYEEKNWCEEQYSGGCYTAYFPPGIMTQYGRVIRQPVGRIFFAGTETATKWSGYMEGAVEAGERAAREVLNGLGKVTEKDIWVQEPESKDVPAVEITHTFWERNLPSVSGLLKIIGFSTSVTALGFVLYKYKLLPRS
Experimental: as §1, §2

Human MAO-B = target: T3, Human MAO-B (Homo sapiens, UniProt P27338); assay: MAO-B inhibition (Amplex Red continuous fluorescence assay)
T3 sequence (P27338 1-520): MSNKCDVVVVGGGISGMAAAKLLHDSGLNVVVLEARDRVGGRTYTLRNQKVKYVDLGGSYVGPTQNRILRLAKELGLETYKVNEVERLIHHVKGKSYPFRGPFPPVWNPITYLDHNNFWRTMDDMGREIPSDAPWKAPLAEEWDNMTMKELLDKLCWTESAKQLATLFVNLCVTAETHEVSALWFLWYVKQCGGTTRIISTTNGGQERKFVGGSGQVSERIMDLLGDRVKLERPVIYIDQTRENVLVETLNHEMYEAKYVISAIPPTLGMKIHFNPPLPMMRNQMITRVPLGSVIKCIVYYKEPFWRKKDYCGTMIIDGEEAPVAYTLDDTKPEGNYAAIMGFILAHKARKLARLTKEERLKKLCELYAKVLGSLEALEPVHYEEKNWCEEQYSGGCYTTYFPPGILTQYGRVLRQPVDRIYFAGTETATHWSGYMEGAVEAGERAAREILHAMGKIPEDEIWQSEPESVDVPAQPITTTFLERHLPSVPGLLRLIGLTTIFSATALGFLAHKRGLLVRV
Experimental: as §1, §2

Human DAO = target: T4, Human DAO (Homo sapiens, UniProt P19801); assay: DAO inhibition (Amplex Red continuous fluorescence assay)
T4 sequence (P19801 20-751): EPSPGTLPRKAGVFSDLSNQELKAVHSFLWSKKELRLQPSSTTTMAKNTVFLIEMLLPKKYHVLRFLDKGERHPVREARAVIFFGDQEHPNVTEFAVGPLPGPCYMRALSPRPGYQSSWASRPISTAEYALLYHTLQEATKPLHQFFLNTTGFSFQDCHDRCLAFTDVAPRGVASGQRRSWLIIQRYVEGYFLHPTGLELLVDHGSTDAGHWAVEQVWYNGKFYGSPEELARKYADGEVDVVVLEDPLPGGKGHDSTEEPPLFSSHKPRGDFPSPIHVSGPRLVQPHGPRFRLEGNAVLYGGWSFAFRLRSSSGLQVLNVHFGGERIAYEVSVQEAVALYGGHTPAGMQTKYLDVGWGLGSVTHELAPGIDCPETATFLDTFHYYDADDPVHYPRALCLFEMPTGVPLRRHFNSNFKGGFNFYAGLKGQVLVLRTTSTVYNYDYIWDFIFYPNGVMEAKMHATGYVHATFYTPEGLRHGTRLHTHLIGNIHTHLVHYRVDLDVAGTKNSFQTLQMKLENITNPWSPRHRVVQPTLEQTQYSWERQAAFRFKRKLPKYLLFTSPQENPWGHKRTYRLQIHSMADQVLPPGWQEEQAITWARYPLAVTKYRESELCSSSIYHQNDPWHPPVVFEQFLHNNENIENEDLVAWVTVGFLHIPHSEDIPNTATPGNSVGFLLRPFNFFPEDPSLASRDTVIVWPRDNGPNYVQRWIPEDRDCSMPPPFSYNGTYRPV
Experimental: as §1, §2

[1] = 30 min pre-incubation at 37° C., substrate benzylamine, read-out: Human VAP-1 IC50
[2] = 30 min pre-incubation at room temp, substrate tyramine, read-out: Human MAO-A IC50
[3] = 30 min pre-incubation at room temp, substrate benzylamine, read-out: Human MAO-B IC50
[4] = 30 min pre-incubation at room temp, substrate histamine, read-out: Human DAO IC50

IC50 (Human VAP-1; [1]) [µM] | IC50 (Human MAO-A; [2]) [µM] | IC50 (Human MAO-B; [3]) [µM] | IC50 (Human DAO; [4]) [µM] | SMILES | IC50 (Human VAP-1) [µM] | IC50 (Human MAO-A) [µM] | IC50 (Human MAO-B) [µM] | IC50 (Human DAO) [µM]
< 3 | < 3 | < 3 | < 3 | NC/C(=C/F)COc1ccc(-c2cocn2)cc1 [Compound 30, (Z)-3-fluoro-2-((4-(oxazol-4-yl)phenoxy)methyl)prop-2-en-1-amine hydrochloride] | – | – | – | –
< 3 | < 3 | < 3 | > 10 | NC/C(=C\F)COc1ccc(-c2ccccc2)cc1 [Compound 33, (E)-2-(([1,1′-biphenyl]-4-yloxy)methyl)-3-fluoroprop-2-en-1-amine hydrochloride] | – | – | – | –
< 3 | < 3 | < 3 | < 3 | NC/C(=C/F)COc1ccc(-c2ccccc2)cc1 [Compound 34, (Z)-2-(([1,1′-biphenyl]-4-yloxy)methyl)-3-fluoroprop-2-en-1-amine hydrochloride] | – | – | – | –
< 3 | 3 to 10 | < 3 | < 3 | NC/C(=C\F)COc1ccc(-c2ncccn2)cc1 [Compound 37, (E)-3-fluoro-2-((4-(pyrimidin-2-yl)phenoxy)methyl)prop-2-en-1-amine hydrochloride] | – | – | – | –
< 3 | < 3 | < 3 | < 3 | NC/C(=C/F)COc1ccc(-c2ncccn2)cc1 [Compound 38, (Z)-3-fluoro-2-((4-(pyrimidin-2-yl)phenoxy)methyl)prop-2-en-1-amine hydrochloride] | – | – | – | –
< 3 | > 10 | < 3 | < 3 | Cn1cnc(-c2ccc(OC/C(=C/F)CN)cc2)c1 [Compound 39, (E)-3-fluoro-2-((4-(1-methyl-1H-imidazol-4-yl)phenoxy)methyl)prop-2-en-1-amine] | – | – | – | –
< 3 | 3 to 10 | < 3 | < 3 | NC/C(=C\F)COc1ccc(-c2cnc[nH]2)cc1 [Compound 40, (E)-2-((4-(1H-imidazol-5-yl)phenoxy)methyl)-3-fluoroprop-2-en-1-amine] | – | – | – | –
< 3 | < 3 | < 3 | > 10 | NC/C(=C\F)COCc1cccs1 [Compound 41, (E)-3-fluoro-2-((thiophen-2-ylmethoxy)methyl)prop-2-en-1-amine] | – | – | – | –
< 3 | < 3 | < 3 | < 3 | NC/C(=C\F)COc1ccc(-c2ccn[nH]2)cc1 [Compound 42, (E)-2-((4-(1H-pyrazol-5-yl)phenoxy)methyl)-3-fluoroprop-2-en-1-amine hydrochloride] | – | – | – | –
< 3 | 3 to 10 | < 3 | < 3 | NC/C(=C\F)COc1ccc(-c2ncon2)cc1 [Compound 43, (E)-2-((4-(1,2,4-oxadiazol-3-yl)phenoxy)methyl)-3-fluoroprop-2-en-1-amine hydrochloride] | – | – | – | –
< 3 | < 3 | < 3 | < 3 | NC/C(=C/F)COc1ccc(-c2ncon2)cc1 [Compound 44, (Z)-2-((4-(1,2,4-OXADIAZOL-3-YL)PHENOXY)METHYL)-3-FLUOROPROP-2-EN-1-AMINE HYDROCHLORIDE] | – | – | – | –
< 3 | > 10 | < 3 | > 10 | CC(C)(C)NC(=O)c1ccc(NC/C(=C/F)CN)cc1 [Compound 45, (E)-4-((2-(aminomethyl)-3-fluoroalkyl)amino)-n-(tert-butyl)benzamide hydrochloride] | – | – | – | –
< 3 | > 10 | < 3 | 3 to 10 | CC(C)(C)NC(=O)c1ccc(NC/C(=C\F)CN)cc1 [Compound 46, (Z)-4-((2-(aminomethyl)-3-fluoroalkyl)amino)-N-(tert-butyl)benzamide hydrochloride] | – | – | – | –
– | – | – | – | NC/C(=C\F)CNC(=O)Oc1ccccc1 [Compound 47, phenyl (E)-(2-(aminomethyl)-3-fluoroalkyl)carbamate hydrochloride] | < 3 | < 3 | > 10 | > 10
< 3 | > 10 | < 3 | < 3 | Cn1nccc1-c1ccc(OC/C(=C/F)CN)cc1 [Compound 48, (E)-3-fluoro-2-((4-(1-methyl-1H-pyrazol-5-yl)phenoxy)methyl)prop-2-en-1-amine hydrochloride] | – | – | – | –
< 3 | < 3 | < 3 | < 3 | Cn1nccc1-c1ccc(OC/C(=C\F)CN)cc1 [Compound 49, (Z)-3-fluoro-2-((4-(1-methyl-1H-pyrazol-5-yl)phenoxy)methyl)prop-2-en-1-amine hydrochloride] | – | – | – | –
< 3 | 3 to 10 | < 3 | < 3 | Cn1ccc(-c2ccc(OC/C(=C/F)CN)cc2)n1 [Compound 50, (E)-3-fluoro-2-((4-(1-methyl-1H-pyrazol-3-yl)phenoxy)methyl)prop-2-en-1-amine hydrochloride] | – | – | – | –
